Assay results from paper PMC12250302, “Synthesis, Antimicrobial Activities, and Model of Action of Novel Tetralone Derivatives Containing Aminoguanidinium Moiety” (International Journal of Molecular Sciences, 2025).
Values after ≈ are worked out from the molar mass of the structure shown.

Tests used:
Assay in all cases: MIC and MBC testing, broth microdilution
[1] = tested on: K. pneumoniae ATCC 700603; format: cell-based, Klebsiella pneumoniae; settings: Klebsiella pneumoniae; for MIC: ATCC700603, 18 h, read-out: MIC; for MBC: ATCC700603, read-out: MBC
Description: (§1) The minimum inhibitory concentrations (MICs) and minimum bactericidal concentrations (MBCs) of the synthesized compounds effective against ESKAPE strains, S. aureus clinical isolates, and MRSA were investigated by the broth dilution method. Levofloxacin is a broad-spectrum antibacterial agent that is widely used in the treatment of ESKAPE infections. Therefore, levofloxacin was selected as the positive control for the preliminary activity screening. DMSO (0.1%) was selected as the negative control.
(§2) The minimum inhibitory concentration (MIC) of all synthesized compounds was tested by the broth microdilution method. In brief, compounds dissolved in DMSO were diluted twice continuously in a 96-well plate with MH broth. The ESKAPE pathogens (E. coli ATCC 25922, S. aureus ATCC 29213, K. pneumoniae ATCC 700603, A. baumannii ATCC 19606, P. aeruginosa ATCC 27853, and E. faecium ATCC 35667), clinical S. aureus isolates (LMY45, LMY46, LMY47, and LMY48) and methicillin-resistant Staphylococcus aureus (MRSA-1 and MRSA-2) were cultured in MH broth to logarithmic growth phase and then diluted to 1 × 10^6 CFU/mL in MH broth. Subsequently, the diluted bacterial solution was mixed with the diluted compound solution in a 96-well plate and incubated at 37 °C for a duration of 18 h. The MIC of the compounds was recorded as the lowest concentration at which no visible growth was observed. […] Each concentration was replicated thrice.

P. aeruginosa ATCC 27853 = format: cell-based, Pseudomonas aeruginosa; settings: Pseudomonas aeruginosa; for MIC: ATCC27853, 18 h, read-out: MIC; for MBC: ATCC27853, read-out: MBC
Description: as §1, §2

S. aureus ATCC 29213 = format: cell-based, Staphylococcus aureus; settings: Staphylococcus aureus, ATCC29213, S. aureus ATCC 29213; for MIC: 18 h, read-out: MIC; for MBC: read-out: MBC
Description: as §1, §2

E. coli ATCC 25922 = format: cell-based, Escherichia coli; settings: Escherichia coli; for MIC: ATCC25922, 18 h, read-out: MIC; for MBC: ATCC25922, read-out: MBC
Description: as §1, §2

[2] = tested on: clinical S. aureus isolate LMY48; format: cell-based, Staphylococcus aureus; settings: Staphylococcus aureus, LMY48; for MIC: 18 h, read-out: MIC; for MBC: read-out: MBC
Method: (§3) Furthermore, the MBC values of the compounds were detected.
as §2, with “h.” for “h. The MIC of the compounds was recorded as the lowest concentration at which no visible growth was observed.”

MRSA-1 = format: cell-based, Staphylococcus aureus; settings: Staphylococcus aureus, MRSA-1; for MIC: 18 h, read-out: MIC; for MBC: read-out: MBC
Method: as §3
as §2, with “h.” for “h. The MIC of the compounds was recorded as the lowest concentration at which no visible growth was observed.”

MRSA-2 = format: cell-based, Staphylococcus aureus; settings: Staphylococcus aureus, MRSA-2; for MIC: 18 h, read-out: MIC; for MBC: read-out: MBC
Method: as §3
as §2, with “h.” for “h. The MIC of the compounds was recorded as the lowest concentration at which no visible growth was observed.”

[3] = tested on: clinical S. aureus isolate LMY45; format: cell-based, Staphylococcus aureus; settings: Staphylococcus aureus, LMY45; for MIC: 18 h, read-out: MIC; for MBC: read-out: MBC
Method: as §3
as §2, with “h.” for “h. The MIC of the compounds was recorded as the lowest concentration at which no visible growth was observed.”

[4] = tested on: clinical S. aureus isolate LMY47; format: cell-based, Staphylococcus aureus; settings: Staphylococcus aureus, LMY47; for MIC: 18 h, read-out: MIC; for MBC: read-out: MBC
Method: as §3
as §2, with “h.” for “h. The MIC of the compounds was recorded as the lowest concentration at which no visible growth was observed.”

[5] = tested on: clinical S. aureus isolate LMY46; format: cell-based, Staphylococcus aureus; settings: Staphylococcus aureus, LMY46; for MIC: 18 h, read-out: MIC; for MBC: read-out: MBC
Method: as §3
as §2, with “h.” for “h. The MIC of the compounds was recorded as the lowest concentration at which no visible growth was observed.”

A. baumannii ATCC 19606 = format: cell-based, Acinetobacter baumannii; settings: Acinetobacter baumannii; for MIC: ATCC19606, 18 h, read-out: MIC; for MBC: ATCC19606, read-out: MBC
Description: as §1, §2

E. faecium ATCC 35667 = format: cell-based, Enterococcus faecium; settings: Enterococcus faecium, ATCC35667, E. faecium ATCC 35667; for MIC: 18 h, read-out: MIC; for MBC: read-out: MBC
Description: as §1, §2

[H]/N=C(\N)NN=C1CCCc2cc(OCc3ccccc3F)ccc21 [Compound 1A, (E)-2-(6-((2-fluorobenzyl)oxy)-3,4-dihydronaphthalen-1(2H)-ylidene)hydrazine-1-carboximidamide]
MIC [1]: 16 µg/mL (≈ 49 µM)
MBC [1]: 16 µg/mL (≈ 49 µM)
MIC (P. aeruginosa ATCC 27853): 32 µg/mL (≈ 98 µM)
MBC (P. aeruginosa ATCC 27853): > 32 µg/mL
MIC (S. aureus ATCC 29213): 4 µg/mL (≈ 12.3 µM)
MBC (S. aureus ATCC 29213): 16 µg/mL (≈ 49 µM)
MIC (E. coli ATCC 25922): 8 µg/mL (≈ 24.5 µM)
MBC (E. coli ATCC 25922): 8 µg/mL (≈ 24.5 µM)
MIC [2]: 2 µg/mL (≈ 6.13 µM)
MBC [2]: 4 µg/mL (≈ 12.3 µM)
MIC (MRSA-1): 2 µg/mL (≈ 6.13 µM)
MBC (MRSA-1): 16 µg/mL (≈ 49 µM)
MIC (MRSA-2): 2 µg/mL (≈ 6.13 µM)
MBC (MRSA-2): 8 µg/mL (≈ 24.5 µM)
MIC [3]: 2 µg/mL (≈ 6.13 µM)
MBC [3]: 4 µg/mL (≈ 12.3 µM)
MIC [4]: 2 µg/mL (≈ 6.13 µM)
MBC [4]: 8 µg/mL (≈ 24.5 µM)
MIC [5]: 2 µg/mL (≈ 6.13 µM)
MBC [5]: 8 µg/mL (≈ 24.5 µM)
MIC (A. baumannii ATCC 19606): 8 µg/mL (≈ 24.5 µM)
MBC (A. baumannii ATCC 19606): 16 µg/mL (≈ 49 µM)
MIC (E. faecium ATCC 35667): 4 µg/mL (≈ 12.3 µM)
MBC (E. faecium ATCC 35667): 16 µg/mL (≈ 49 µM)

[H]/N=C(\N)NN=C1CCCc2cc(OCc3cccc(F)c3)ccc21 [Compound 1B, (E)-2-(6-((3-fluorobenzyl)oxy)-3,4-dihydronaphthalen-1(2H)-ylidene)hydrazine-1-carboximidamide]
MIC [1]: 16 µg/mL (≈ 49 µM)
MBC [1]: 16 µg/mL (≈ 49 µM)
MIC (P. aeruginosa ATCC 27853): 32 µg/mL (≈ 98 µM)
MBC (P. aeruginosa ATCC 27853): 32 µg/mL (≈ 98 µM)
MIC (S. aureus ATCC 29213): 4 µg/mL (≈ 12.3 µM)
MBC (S. aureus ATCC 29213): 16 µg/mL (≈ 49 µM)
MIC (E. coli ATCC 25922): 8 µg/mL (≈ 24.5 µM)
MBC (E. coli ATCC 25922): 8 µg/mL (≈ 24.5 µM)
MIC [2]: 4 µg/mL (≈ 12.3 µM)
MBC [2]: 4 µg/mL (≈ 12.3 µM)
MIC (MRSA-1): 2 µg/mL (≈ 6.13 µM)
MBC (MRSA-1): 8 µg/mL (≈ 24.5 µM)
MIC (MRSA-2): 2 µg/mL (≈ 6.13 µM)
MBC (MRSA-2): 8 µg/mL (≈ 24.5 µM)
MIC [3]: 2 µg/mL (≈ 6.13 µM)
MBC [3]: 4 µg/mL (≈ 12.3 µM)
MIC [4]: 2 µg/mL (≈ 6.13 µM)
MBC [4]: 8 µg/mL (≈ 24.5 µM)
MIC [5]: 2 µg/mL (≈ 6.13 µM)
MBC [5]: 16 µg/mL (≈ 49 µM)
MIC (A. baumannii ATCC 19606): 8 µg/mL (≈ 24.5 µM)
MBC (A. baumannii ATCC 19606): 16 µg/mL (≈ 49 µM)
MIC (E. faecium ATCC 35667): 4 µg/mL (≈ 12.3 µM)
MBC (E. faecium ATCC 35667): 16 µg/mL (≈ 49 µM)

[H]/N=C(\N)NN=C1CCCc2cc(OCc3ccc(F)cc3)ccc21 [Compound 1C, (E)-2-(6-((4-fluorobenzyl)oxy)-3,4-dihydronaphthalen-1(2H)-ylidene)hydrazine-1-carboximidamide]
MIC [1]: 16 µg/mL (≈ 49 µM)
MBC [1]: 16 µg/mL (≈ 49 µM)
MIC (P. aeruginosa ATCC 27853): 32 µg/mL (≈ 98 µM)
MBC (P. aeruginosa ATCC 27853): 32 µg/mL (≈ 98 µM)
MIC (S. aureus ATCC 29213): 4 µg/mL (≈ 12.3 µM)
MBC (S. aureus ATCC 29213): 16 µg/mL (≈ 49 µM)
MIC (E. coli ATCC 25922): 8 µg/mL (≈ 24.5 µM)
MBC (E. coli ATCC 25922): 8 µg/mL (≈ 24.5 µM)
MIC [2]: 4 µg/mL (≈ 12.3 µM)
MBC [2]: 4 µg/mL (≈ 12.3 µM)
MIC (MRSA-1): 2 µg/mL (≈ 6.13 µM)
MBC (MRSA-1): 16 µg/mL (≈ 49 µM)
MIC (MRSA-2): 4 µg/mL (≈ 12.3 µM)
MBC (MRSA-2): 8 µg/mL (≈ 24.5 µM)
MIC [3]: 2 µg/mL (≈ 6.13 µM)
MBC [3]: 4 µg/mL (≈ 12.3 µM)
MIC [4]: 2 µg/mL (≈ 6.13 µM)
MBC [4]: 8 µg/mL (≈ 24.5 µM)
MIC [5]: 2 µg/mL (≈ 6.13 µM)
MBC [5]: 8 µg/mL (≈ 24.5 µM)
MIC (A. baumannii ATCC 19606): 8 µg/mL (≈ 24.5 µM)
MBC (A. baumannii ATCC 19606): 8 µg/mL (≈ 24.5 µM)
MIC (E. faecium ATCC 35667): 4 µg/mL (≈ 12.3 µM)
MBC (E. faecium ATCC 35667): 16 µg/mL (≈ 49 µM)

[H]/N=C(\N)NN=C1CCCc2cc(OCc3ccc(F)cc3F)ccc21 [Compound 1D, (E)-2-(6-((2,4-difluorobenzyl)oxy)-3,4-dihydronaphthalen-1(2H)-ylidene)hydrazine-1-carboximidamide]
MIC [1]: 16 µg/mL (≈ 46.5 µM)
MBC [1]: 16 µg/mL (≈ 46.5 µM)
MIC (P. aeruginosa ATCC 27853): 32 µg/mL (≈ 92.9 µM)
MBC (P. aeruginosa ATCC 27853): 32 µg/mL (≈ 92.9 µM)
MIC (S. aureus ATCC 29213): 2 µg/mL (≈ 5.81 µM)
MBC (S. aureus ATCC 29213): 8 µg/mL (≈ 23.2 µM)
MIC (E. coli ATCC 25922): 8 µg/mL (≈ 23.2 µM)
MBC (E. coli ATCC 25922): 8 µg/mL (≈ 23.2 µM)
MIC [2]: 2 µg/mL (≈ 5.81 µM)
MBC [2]: 4 µg/mL (≈ 11.6 µM)
MIC (MRSA-1): 2 µg/mL (≈ 5.81 µM)
MBC (MRSA-1): 32 µg/mL (≈ 92.9 µM)
MIC (MRSA-2): 2 µg/mL (≈ 5.81 µM)
MBC (MRSA-2): 32 µg/mL (≈ 92.9 µM)
MIC [3]: 2 µg/mL (≈ 5.81 µM)
MBC [3]: 4 µg/mL (≈ 11.6 µM)
MIC [4]: 2 µg/mL (≈ 5.81 µM)
MBC [4]: 8 µg/mL (≈ 23.2 µM)
MIC [5]: 4 µg/mL (≈ 11.6 µM)
MBC [5]: 32 µg/mL (≈ 92.9 µM)
MIC (A. baumannii ATCC 19606): 8 µg/mL (≈ 23.2 µM)
MBC (A. baumannii ATCC 19606): 8 µg/mL (≈ 23.2 µM)
MIC (E. faecium ATCC 35667): 4 µg/mL (≈ 11.6 µM)
MBC (E. faecium ATCC 35667): 16 µg/mL (≈ 46.5 µM)
